Experimental data: patent US8703825B2, “Compounds, use thereof as medicaments, and method of preparation thereof” (Universite de Lorraine, priority 2008, dated 2014)
≈ marks a conversion by molar mass, not a printed value. Read-outs that look alike come from different tables or passages of the source.

Key:
Type in all cases: cell-based
[1] = test system: Escherichia coli ATCC 25922; test: MIC by microdilution in liquid medium (CLSI / CA-SFM)
Description: (§1) According to the joint recommendations: • of the “Comite de l′Antibiogramme de la Société Française de Microbiologie” (Antibiogram Committee of the French Society of Microbiology) (CA-SFM) [CA-SFM. Communique 2007 (Edition of January 2007). http://www.sfm.asso.fr] and, • of the “Clinical and Laboratory Standards Institute” (CLSI, formerly “National Committee for Clinical Laboratory Standards” or NCCLS) [NCCLS. 2003. Methods for dilution antimicrobial susceptibility tests for bacteria that grow aerobically; approved standard M7-A6, 6th ed. National Committee for Clinical Laboratory Standards, Wayne, Pa., USA.], five reference bacterial strains were used for the study: Escherichia coli ATCC 25922, Pseudomonas aeruginosa ATCC 27853, Staphylococcus aureus ATCC 25923 & ATCC 29213 and Enterococcus faecalis ATCC 29212.
(§2) The bacteria are cultivated either on Mueller-Hinton agar (Difco, 225250), or in Mueller-Hinton broth (Difco, 275730), at 35° C. [Grare M, Mourer M, Fontanay S, Regnouf-de-Vains J B, Finance C, Duval R E. In vitro activity of para-guanidinoethylcalix[4]arene against susceptible and antibiotic-resistant Gram-negative and Gram-positive bacteria. J. Antimicrob Chemother. 2007; 60: 575-81].
(§3) The various molecules tested were prepared in the form of aqueous solution at 10^−2 mol/L. The solutions used for the biological tests are freshly prepared, and stored for a week at most, at 4° C. The solutions are filtered through a filter with pores of 0.22 μm (Millex®GP; 0.22 μm; Millipore; France) before each test.
(§4) Procedure for determining the Minimum Inhibitory Concentration (MIC)
(§5) The minimum inhibitory concentrations (MIC) were determined by the standardized method of microdilution in liquid medium (96-well microplate, U-shaped bottom, Greiner), in Mueller-Hinton broth, with a final inoculum of 10^5-10^6 CFU/mL, depending on the bacterial species, in accordance with the recommendations of the CLSI.
(§6) For the determination of MIC, bacterial suspensions are prepared from an isolated colony, taken from a Mueller-Hinton agar, taken up in 5 mL of Mueller-Hinton broth. After 24 h of growth, the bacterial suspensions are diluted in sterile distilled water in order to obtain an inoculum of 10^5-10^6 CFU/mL. The purity of the bacterial suspensions is tested by isolation on agar and Gram staining.
(§7) The results are the mean value of 4 independent experiments.

[2] = test system: Staphylococcus aureus ATCC 29213; test: as above; conditions: Staphylococcus aureus, ATCC29213, S. aureus ATCC 29213, reference strain; read-out: MIC
Description: as §1, §2, §3, §4, §5, §6, §7

[3] = test system: Staphylococcus aureus ATCC 25923; test: as above
Description: as §1, §2, §3, §4, §5, §6, §7

[4] = test system: Enterococcus faecalis ATCC 29212; test: as above; conditions: ATCC29212, E. faecalis ATCC 29212, reference strain, read-out: MIC
Description: as §1, §2, §3, §4, §5, §6, §7

[5] = test system: Pseudomonas aeruginosa ATCC 27853; test: as above; conditions: ATCC27853, P. aeruginosa ATCC 27853, reference strain, read-out: MIC
Description: as §1, §2, §3, §4, §5, §6, §7

[6] = test system: Gram-positive and Gram-negative bacteria (reference strains and clinical isolates); test: Antibacterial activity overall (MIC determination); conditions: summary of MIC results
Description: as §1
The study also included 5 clinical isolates, obtained from rectal samples and/or from haemoculture: • […] E. coli (EcR1), • methicillin-resistant S. aureus (mecA gene) (SaR1), • vancomycin-resistant E. faecium (vanB gene) (EfR1), • E. faecalis resistant to teicoplanin and to vancomycin (vanA gene) (EfR2), and • P. aeruginosa overexpressing an efflux pump (PaRl).
as §4, §5, §6, §7

[7] = Escherichia coli, ATCC25922, E. coli ATCC 25922, reference strain, read-out: MIC
[8] = Staphylococcus aureus, ATCC25923, S. aureus ATCC 25923, reference strain, read-out: MIC
[9] = S. aureus ATCC 25923, reference strain

Compound | MIC [1, 7] [µg/mL] | MIC [2] [µg/mL] | MIC [3, 8] [µg/mL] | MIC [4] [µg/mL] | MIC [5] [µg/mL] | antibacterial activity (in words) [6] | MIC [3, 9] | MIC ([1]; E. coli ATCC 25922, reference strain)
N=C(N)NCCc1ccc(OCOc2ccc(CCNC(=N)N)cc2)cc1 [compound 1, 1,1-bis(4-(2-guanidinoethyl)phenoxy)methane] | 64 (≈ 173 µM) | 8 (≈ 21.6 µM) | 16 (≈ 43.2 µM) | 256 (≈ 691 µM) | 64 (≈ 173 µM) | – | – | –
N=C(N)NCCc1ccc(OCCCOc2ccc(CCNC(=N)N)cc2)cc1 [compound 3, 1,3-bis(4-(2-guanidinoethyl)phenoxy)propane] | 32 (≈ 80.3 µM) | 2 (≈ 5.02 µM) | 4 (≈ 10 µM) | 128 (≈ 321 µM) | 64 (≈ 161 µM) | – | – | –
N=C(N)NCCc1ccc(OCCCCOc2ccc(CCNC(=N)N)cc2)cc1 [compound 4, 1,4-bis(4-(2-guanidinoethyl)phenoxy)butane] | 32 (≈ 77.6 µM) | 1 (≈ 2.42 µM) | 2 (≈ 4.85 µM) | 64 (≈ 155 µM) | 64 (≈ 155 µM) | – | – | –
N=C(N)NCCc1ccc(OCCCCCCCOc2ccc(CCNC(=N)N)cc2)cc1 [compound 7, 1,7-bis(4-(2-guanidinoethyl)phenoxy)heptane] | 4 (≈ 8.8 µM) | 1 (≈ 2.2 µM) | 1 (≈ 2.2 µM) | 8 (≈ 17.6 µM) | 16 (≈ 35.2 µM) | – | – | –
N=C(N)NCCc1ccc(OCCCCCCCCCOc2ccc(CCNC(=N)N)cc2)cc1 [compound 9, 1,9-bis(4-(2-guanidinoethyl)phenoxy)nonane] | 1 (≈ 2.07 µM) | 0.25 (≈ 0.518 µM) | 0.25 (≈ 0.518 µM) | 1 to 2 (≈ 2.07 to 4.14 µM) | 4 (≈ 8.29 µM) | very good activities on the 5 reference strains tested | – | –
N=C(N)NCCc1ccc(OCCCCCCCCCCOc2ccc(CCNC(=N)N)cc2)cc1 [compound 10, 1,10-bis(4-(2-guanidinoethyl)phenoxy)decane] | 1 to 2 (≈ 2.01 to 4.03 µM) | < 1 | < 1 | < 1 | 8 (≈ 16.1 µM) | – | – | –
N=C(N)CCc1ccc(OCCCOc2ccc(CCC(=N)N)cc2)cc1 [compound 103, 1,3-bis(4-(2-(amidino)ethyl)phenoxy)propane] | 128 (≈ 347 µM) | 32 (≈ 86.8 µM) | 32 (≈ 86.8 µM) | 256 (≈ 695 µM) | 128 (≈ 347 µM) | – | – | –
N=C(N)CCc1ccc(OCCCCOc2ccc(CCC(=N)N)cc2)cc1 [compound 104, 1,4-bis(4-(2-(amidino)ethyl)phenoxy)butane] | 64 (≈ 167 µM) | 2 (≈ 5.23 µM) | 2 (≈ 5.23 µM) | 256 (≈ 669 µM) | 64 (≈ 167 µM) | – | – | –
N=C(N)CCc1ccc(OCCCCCCOc2ccc(CCC(=N)N)cc2)cc1 [compound 106, 1,6-bis(4-(2-(amidino)ethyl)phenoxy)hexane] | 32 (≈ 77.9 µM) | 2 (≈ 4.87 µM) | 4 (≈ 9.74 µM) | 32 (≈ 77.9 µM) | 32 (≈ 77.9 µM) | – | 2 (1) mg/L | –
N=C(N)CCc1ccc(OCCCCCCCOc2ccc(CCC(=N)N)cc2)cc1 [compound 107, 1,7-bis(4-(2-(amidino)ethyl)phenoxy)heptane] | 64 (≈ 151 µM) | – | – | 32 (≈ 75.4 µM) | 64 (≈ 151 µM) | – | – | –
N=C(N)CCc1ccc(OCCCCCCCCOc2ccc(CCC(=N)N)cc2)cc1 [compound 108, 1,8-bis(4-(2-(amidino)ethyl)phenoxy)octane] | 32 (≈ 73 µM) | – | 2 (≈ 4.56 µM) | 8 (≈ 18.2 µM) | 16 (≈ 36.5 µM) | – | 4 (1) mg/L | –
N=C(N)CCc1ccc(OCCCCCCCCCCOc2ccc(CCC(=N)N)cc2)cc1 [compound 110, 1,10-bis(4-(2-(amidino)ethyl)phenoxy)decane] | 4 (≈ 8.57 µM) | 1 (≈ 2.14 µM) | 1 (≈ 2.14 µM) | 2 (≈ 4.29 µM) | 16 (≈ 34.3 µM) | – | – | 8 (1) mg/L
